Experimental data taken from patent US10145848B2, “Small-molecule hydrophobic tagging of fusion proteins and induced degradation of same” (YALE UNIVERSITY, priority 2010, dated 2018).
Residues, ends and D or L forms follow the SMILES beside them. *: point of attachment. Cbz = O=C(OCc1ccccc1)*

Tests used:
Format in all cases: cell-based
[1] = target: T1, HA-EGFP-HaloTag fusion protein (Rhodococcus rhodochrous, UniProt P0A3G2, C176G/H272F/K175M/Y273L); assay: Immunoblotting of HA-EGFP-HaloTag in Flp-In 293 cells; conditions: 10 μM pretreatment 1 hour, then 1 μM HyT13, 6 hours
T1 construct: The HaloTag protein was obtained from pHT2 vector (Promega); expressed in transfected cells
Protocol: Flp-In 293 cells expressing HA-EGFP-HaloTag were treated with indicated concentrations of HyT13 for 24 hours. The lysates were probed with anti-HA and anti-β-actin antibodies, with β-actin serving as a loading control. Shown is quantification of three separate experiments, with error bars representing SEM.
Flp-In 293 cells expressing HA-EGFP-HaloTag cells were treated for the indicated times with 1 μM HyT13 and the lysates were probed with anti-HA and anti-β-actin antibodies. The rightmost sample was treated with HyT13 for 24 hours, after which HyT13-free media was provided for 24 hours. Shown is quantification of three separate experiments, with error bars representing SEM.
The indicated cells were washed twice with cold PBS and the cells were lysed in lysis buffer (1×PBS, 1% NP-40, 1 mM EDTA, 40 mM HEPES) with protease inhibitors. The lysates were cleared by centrifugation at 10,000 g for 5 min. The total protein concentration was determined by Bradford assay and 50 μg of protein was loaded onto an 8% Bis-Tris gel. To solubilize polyubiquitinated and aggregated proteins upon proteasome inhibition^42 samples generated for FIG. 12d were lysed with a SDS lysis buffer (1×PBS, 1% NP-40, 1% SDS, 1% sodium deoxycholate, 1 mM EDTA, 40 mM HEPES) with protease inhibitors. The blots were processed by standard procedures with indicated antibodies, and the band intensities were quantified by ImageJ.
As the luciferase assay relied on the loss-of-activity of the luciferase-HaloTag fusion protein, we wanted to determine whether the decrease in luciferase activity resulted from the degradation of the entire fusion protein or perhaps simply inhibition of luciferase activity. We generated a stable Flp-In 293 cell line with a single integration site containing HA-EGFP-HaloTag fusion protein, and employed this cell line to perform kinetic studies with HyT13. […] Consistent with our previous observations, treatment of these cells with 1 μM of HyT13 for 24 hours reduced the mean fluorescence intensity of cells almost 7-fold. Together, these findings provide the first experimental evidence that hydrophobic tagging represents a viable strategy for the control of protein levels.

HEK293 or HeLa cells = assay: Cell viability with Resazurin (alamarBlue); conditions: indicated concentration, 24 hours
Protocol: HEK293 or HeLa cells were treated with indicated concentrations of HyT13 for 24 hours. The oxidation-reduction indicator Resazurin (alamarBlue, Invitrogen) was employed to determine cell viability.

[2] = target: T2, luciferase-HaloTag fusion protein (Rhodococcus rhodochrous, UniProt P0A3G2, C176G/H272F/K175M/Y273L); assay: Luciferase assay in HEK 293T cells expressing luciferase-HaloTag; conditions: 1 μM, 24 hours
T2 construct: The HaloTag protein was obtained from pHT2 vector (Promega); luciferase (from pGL3-Basic); expressed in transfected cells
Protocol: (a) Chemical structures of the representative HaloTag Ligands: HyT5, HyT12, HyT13, HyT16, HyT21 and HyT22. (b) HEK 293T cells expressing HA-HaloTag-luciferase were treated with indicated compounds at 1 μM for 24 hours, at which point luciferase assays were performed.
Ten thousand stable HEK 293T cells infected with HA-luciferase-HaloTag were plated into each well in a 96-well plate. The next day, indicated HyT compounds were added in triplicate and the cells were cultured for another 24 hours. The cells were washed once with cold PBS and lysed in Passive Lysis Buffer (Promega). The luciferase activity was performed by Steady-Glo Luciferase Assay System (Promega) on a Wallac Victor 2 Plate Reader (Perkin Elmer) and the luciferase activity was normalized by protein concentration, as determined by the Bradford assay.
The inventors designed 21 structurally distinct scaffolds as the basis for our hydrophobic Tags (HyTs), and synthesized and tested 30 compounds across these scaffolds composed of hydrophobic moieties linked to the HaloTag haloalkane reactive linker (Table 1, FIG. 5). […]

SMILES | effect of proteasome inhibitor on HyT13 mediated degradation [1] | cellular toxicity (positive control) (HEK293 or HeLa cells) | luciferase activity [2]
CC(=O)NC(CCc1ccccc1)C(=O)NC(CC(C)C)C(=O)NC(Cc1ccccc1)C(=O)NC(CC(C)C)C(=O)C1(C)CO1 (stereo not shown) [YU101, reference compound] | blocked HyT13 mediated degradation | toxic to cells | –
CC(C)C[C@@H](C=O)NC(=O)[C@H](CC(C)C)NC(=O)[C@H](CC(C)C)NC(=O)OCc1ccccc1 [MG132, reference compound] (Cbz-Leu-Leu-Leu-aldehyde) | blocked HyT13 mediated degradation | – | –
NCCOCCOCCOCCn1cc(CCC(=O)NCCOCCOCCOCC(=O)NCCOCCOCCCCCCCl)nn1 [HyT5, 3-(1-(2-(2-(2-(2-aminoethoxy)ethoxy)ethoxy)ethyl)-1H-1,2,3-triazol-4-yl)-N-(24-chloro-11-oxo-3,6,9,15,18-pentaoxa-12-azatetracosyl)propanamide] | – | – | did not decrease the luciferase activity
